Test results published in paper PMC11191687.

What was measured:
[1] = as series A (acyl azide from hydrazide, biphasic EtOAc/buffer), isolated after prep HPLC; conditions: aq phosphate buffer (6 M GdmCl) / EtOAc biphasic, 3.0 mM, 0.25 h, 2 steps
[2] = head-to-tail lactamisation of unprotected peptide acyl azide (from C-terminal hydrazide, 20 equiv NaNO2, pH 3, -15 C, then NaHCO3 to pH ~7), biphasic EtOAc/buffer; conditions: aq phosphate buffer (6 M GdmCl, 50 mM NaH2PO4, 1.5 mM EDTA) / EtOAc biphasic, 3.0 mM, 2 steps
[3] = lactamisation (head-to-tail or side-chain-to-tail) of unprotected peptide acyl azide (from hydrazide, 20 equiv NaNO2, pH 3, -15 C, then NaHCO3 to pH ~7), MeCN cosolvent; conditions: from C=CC[C@H](NC(=O)[C@H](CC(C)C)NC(=O)[C@H](CC(C)C)N(C)C(=O)[C@H](C)NC(=O)[C@H](Cc1ccc(O)c([N+](=O)[O-])c1)NC(=O)[C@H](CC(C)C)N(C)C(=O)[C@@H](N)Cc1cn(C(C)(C)C=C)c2ccccc12)C(=O)N=[N+]=[N-]; 21-membered ring; aq phosphate buffer (6 M GdmCl) diluted with 2 vol 50% MeCN/water; 2.2 mM; 0.27 h; 2 steps

`C=CC[C@@H]1NC(=O)[C@H](CC(C)C)N(C)C(=O)[C@H](C(C)C)NC(=O)[C@H](Cc2ccccc2)NC(=O)[C@H](C)NC(=O)[C@H](CC(C)C)N(C)C(=O)[C@H](Cc2cn(C)c3ccccc23)NC1=O` [H-Trp(1-Me)-N-Me-Leu-Ala-Phe-Val-N-Me-Leu-allylGly-N3] gave a ring closure, yield over several steps ([1]; from C=CC[C@H](NC(=O)[C@H](CC(C)C)N(C)C(=O)[C@@H](NC(=O)[C@H](Cc1ccccc1)NC(=O)[C@H](C)NC(=O)[C@H](CC(C)C)N(C)C(=O)[C@@H](N)Cc1cn(C)c2ccccc12)C(C)C)C(=O)N=[N+]=[N-], 21-membered ring) of 50% and a ring closure, conversion by HPLC ([2]; from C=CC[C@H](NC(=O)[C@H](CC(C)C)N(C)C(=O)[C@@H](NC(=O)[C@H](Cc1ccccc1)NC(=O)[C@H](C)NC(=O)[C@H](CC(C)C)N(C)C(=O)[C@@H](N)Cc1cn(C)c2ccccc12)C(C)C)C(=O)N=[N+]=[N-], 21-membered ring, 0.25 h) of 75%.
Work on `C=CC[C@@H]1NC(=O)[C@H](CC(C)C)NC(=O)[C@H](CC(C)C)N(C)C(=O)[C@H](C)NC(=O)[C@H](Cc2ccc(O)c([N+](=O)[O-])c2)NC(=O)[C@H](CC(C)C)N(C)C(=O)[C@@H](Cc2cn(C)c3ccccc23)NC1=O` yielded a ring closure, conversion by HPLC ([2]; from C=CC[C@H](NC(=O)[C@H](CC(C)C)NC(=O)[C@H](CC(C)C)N(C)C(=O)[C@H](C)NC(=O)[C@H](Cc1ccc(O)c([N+](=O)[O-])c1)NC(=O)[C@H](CC(C)C)N(C)C(=O)[C@H](N)Cc1cn(C)c2ccccc12)C(=O)N=[N+]=[N-], 21-membered ring) of 95%.
`CC(C)C[C@@H]1NC(=O)[C@H](CC(C)C)N(C)C(=O)[C@H](C)NC(=O)[C@H](Cc2ccc(O)c([N+](=O)[O-])c2)NC(=O)[C@H](CC(C)C)N(C)C(=O)[C@H](Cc2c[nH]c3ccccc23)NC(=O)[C@H](C)NC1=O` [H-Trp-N-Me-Leu-Tyr(3-NO2)-Ala-N-Me-Leu-Leu-Ala-N3] gave a ring closure, yield over several steps ([1]; from CC(C)C[C@H](NC(=O)[C@H](CC(C)C)N(C)C(=O)[C@H](C)NC(=O)[C@H](Cc1ccc(O)c([N+](=O)[O-])c1)NC(=O)[C@H](CC(C)C)N(C)C(=O)[C@@H](N)Cc1c[nH]c2ccccc12)C(=O)N[C@@H](C)C(=O)N=[N+]=[N-], 21-membered ring) of 52% and a ring closure, conversion by HPLC ([2]; from CC(C)C[C@H](NC(=O)[C@H](CC(C)C)N(C)C(=O)[C@H](C)NC(=O)[C@H](Cc1ccc(O)c([N+](=O)[O-])c1)NC(=O)[C@H](CC(C)C)N(C)C(=O)[C@@H](N)Cc1c[nH]c2ccccc12)C(=O)N[C@@H](C)C(=O)N=[N+]=[N-], 21-membered ring, 0.25 h) of 87%.
For `C=CC[C@@H]1NC(=O)[C@H](CC(C)C)NC(=O)[C@H](CC(C)C)N(C)C(=O)[C@H](C)NC(=O)[C@H](Cc2ccc(O)c([N+](=O)[O-])c2)NC(=O)[C@H](CC(C)C)N(C)C(=O)[C@H](Cc2cn(C(C)(C)C=C)c3ccccc23)NC1=O`, the ring closure, yield over several steps ([1]; from C=CC[C@H](NC(=O)[C@H](CC(C)C)NC(=O)[C@H](CC(C)C)N(C)C(=O)[C@H](C)NC(=O)[C@H](Cc1ccc(O)c([N+](=O)[O-])c1)NC(=O)[C@H](CC(C)C)N(C)C(=O)[C@@H](N)Cc1cn(C(C)(C)C=C)c2ccccc12)C(=O)N=[N+]=[N-], 21-membered ring) was 56% and the ring closure, conversion by HPLC [3] was 90%.
With `C=CC[C@@H]1NC(=O)[C@H](CC(C)C)NC(=O)[C@H](CC(C)C)N(C)C(=O)[C@H](C)NC(=O)[C@H](Cc2ccc(O)c([N+](=O)[O-])c2)NC(=O)[C@H](CC(C)C)N(C)C(=O)[C@H](Cc2cn(C)c3ccccc23)NC1=O` [H-Trp(1-Me)-N-Me-Leu-Tyr(3-NO2)-Ala-N-Me-Leu-Leu-allylGly-N3] the ring closure, yield over several steps ([1]; from C=CC[C@H](NC(=O)[C@H](CC(C)C)NC(=O)[C@H](CC(C)C)N(C)C(=O)[C@H](C)NC(=O)[C@H](Cc1ccc(O)c([N+](=O)[O-])c1)NC(=O)[C@H](CC(C)C)N(C)C(=O)[C@@H](N)Cc1cn(C)c2ccccc12)C(=O)N=[N+]=[N-], 21-membered ring) was 58% and the ring closure, conversion by HPLC ([2]; from C=CC[C@H](NC(=O)[C@H](CC(C)C)NC(=O)[C@H](CC(C)C)N(C)C(=O)[C@H](C)NC(=O)[C@H](Cc1ccc(O)c([N+](=O)[O-])c1)NC(=O)[C@H](CC(C)C)N(C)C(=O)[C@@H](N)Cc1cn(C)c2ccccc12)C(=O)N=[N+]=[N-], 21-membered ring, 0.25 h) was 93%.
With `C=CC[C@@H]1NC(=O)[C@H](CC(C)C)NC(=O)[C@H](CC(C)C)N(C)C(=O)[C@H](CO)NC(=O)[C@H](Cc2ccc(O)c([N+](=O)[O-])c2)NC(=O)[C@H](CC(C)C)N(C)C(=O)[C@H](Cc2c[nH]c3ccccc23)NC1=O` [H-Trp-N-Me-Leu-Tyr(3-NO2)-Ser-N-Me-Leu-Leu-allylGly-N3] the ring closure, yield over several steps ([1]; from C=CC[C@H](NC(=O)[C@H](CC(C)C)NC(=O)[C@H](CC(C)C)N(C)C(=O)[C@H](CO)NC(=O)[C@H](Cc1ccc(O)c([N+](=O)[O-])c1)NC(=O)[C@H](CC(C)C)N(C)C(=O)[C@@H](N)Cc1c[nH]c2ccccc12)C(=O)N=[N+]=[N-], 21-membered ring) was 42% and the ring closure, conversion by HPLC ([2]; from C=CC[C@H](NC(=O)[C@H](CC(C)C)NC(=O)[C@H](CC(C)C)N(C)C(=O)[C@H](CO)NC(=O)[C@H](Cc1ccc(O)c([N+](=O)[O-])c1)NC(=O)[C@H](CC(C)C)N(C)C(=O)[C@@H](N)Cc1c[nH]c2ccccc12)C(=O)N=[N+]=[N-], 21-membered ring, 0.25 h) was 84%.
Molecule `CC(C)C[C@@H]1NC(=O)[C@H](CC(C)C)N(C)C(=O)[C@H](C)NC(=O)[C@H](Cc2ccc(O)c([N+](=O)[O-])c2)NC(=O)[C@H](CC(C)C)N(C)C(=O)[C@H](C)NC(=O)[C@H](Cc2ccccc2)NC1=O` [H-Ala-N-Me-Leu-Tyr(3-NO2)-Ala-N-Me-Leu-Leu-Phe-N3] has a ring closure, yield over several steps ([1]; from CC(C)C[C@H](NC(=O)[C@H](CC(C)C)N(C)C(=O)[C@H](C)NC(=O)[C@H](Cc1ccc(O)c([N+](=O)[O-])c1)NC(=O)[C@H](CC(C)C)N(C)C(=O)[C@H](C)N)C(=O)N[C@@H](Cc1ccccc1)C(=O)N=[N+]=[N-], 21-membered ring) of 40% and a ring closure, conversion by HPLC ([2]; from CC(C)C[C@H](NC(=O)[C@H](CC(C)C)N(C)C(=O)[C@H](C)NC(=O)[C@H](Cc1ccc(O)c([N+](=O)[O-])c1)NC(=O)[C@H](CC(C)C)N(C)C(=O)[C@H](C)N)C(=O)N[C@@H](Cc1ccccc1)C(=O)N=[N+]=[N-], 21-membered ring, 0.25 h) of 88%.
In the case of `C=CC(C)(C)n1cc(C[C@@H]2NC(=O)[C@H](Cc3ccccc3)NC(=O)[C@H](CC(C)C)NC(=O)[C@H](CC(C)C)N(C)C(=O)[C@H](C)NC(=O)[C@H](Cc3ccc(O)c([N+](=O)[O-])c3)NC(=O)[C@H](CC(C)C)N(C)C2=O)c2ccccc21`, the ring closure, yield over several steps ([1]; from C=CC(C)(C)n1cc(C[C@H](N)C(=O)N(C)[C@@H](CC(C)C)C(=O)N[C@@H](Cc2ccc(O)c([N+](=O)[O-])c2)C(=O)N[C@@H](C)C(=O)N(C)[C@@H](CC(C)C)C(=O)N[C@@H](CC(C)C)C(=O)N[C@@H](Cc2ccccc2)C(=O)N=[N+]=[N-])c2ccccc21, 21-membered ring) is reported as 22% and the ring closure, conversion by HPLC ([2]; from C=CC(C)(C)n1cc(C[C@H](N)C(=O)N(C)[C@@H](CC(C)C)C(=O)N[C@@H](Cc2ccc(O)c([N+](=O)[O-])c2)C(=O)N[C@@H](C)C(=O)N(C)[C@@H](CC(C)C)C(=O)N[C@@H](CC(C)C)C(=O)N[C@@H](Cc2ccccc2)C(=O)N=[N+]=[N-])c2ccccc21, 21-membered ring, 0.25 h) is reported as 63%.
`CC[C@@H]1NC(=O)[C@H](CC(C)C)N(C)C(=O)[C@H](C(C)C)N(C)C(=O)[C@H](CC(C)C)N(C)C(=O)[C@H](CC(C)C)N(C)C(=O)[C@@H](C)NC(=O)[C@H](C)NC(=O)[C@H](CC(C)C)N(C)C(=O)[C@H](C(C)C)NC(=O)[C@H](CC(C)C)N(C)C(=O)CN(C)C1=O` showed a ring closure, yield over several steps ([1]; from CC[C@H](NC(=O)[C@H](CC(C)C)N(C)C(=O)[C@H](C(C)C)N(C)C(=O)[C@H](CC(C)C)N(C)C(=O)[C@H](CC(C)C)N(C)C(=O)[C@@H](C)N)C(=O)N(C)CC(=O)N(C)[C@@H](CC(C)C)C(=O)N[C@H](C(=O)N(C)[C@@H](CC(C)C)C(=O)N[C@@H](C)C(=O)N=[N+]=[N-])C(C)C, 33-membered ring) of 22% and a ring closure, conversion by HPLC ([2]; from CC[C@H](NC(=O)[C@H](CC(C)C)N(C)C(=O)[C@H](C(C)C)N(C)C(=O)[C@H](CC(C)C)N(C)C(=O)[C@H](CC(C)C)N(C)C(=O)[C@@H](C)N)C(=O)N(C)CC(=O)N(C)[C@@H](CC(C)C)C(=O)N[C@H](C(=O)N(C)[C@@H](CC(C)C)C(=O)N[C@@H](C)C(=O)N=[N+]=[N-])C(C)C, 33-membered ring, 0.25 h) of 61%.
